Data from ChEMBL document CHEMBL5096154, “A comprehensive review on the biological interest of quinoline and its derivatives” (Bioorg Med Chem, 2021).
pIC50: −log10 of the molar value. Values after ≈ are worked out from the molar mass of the structure shown.

Experiments:
[1] = tested on: Leishmania braziliensis; assay: Antileishmanial activity against promastigote form of Leishmania braziliensis assessed as parasite growth inhibition; type: functional
[2] = tested on: Plasmodium falciparum; assay: Antimalarial activity against chloroquine-resistant Plasmodium falciparum assessed as parasite growth inhibition measured for 24 to 72 hrs; type: functional, organism-based
[3] = tested on: Mycobacterium tuberculosis; assay: Antimycobacterial activity against Mycobacterium tuberculosis H37Rv assessed as bacterial growth inhibition by microplate alamar blue assay; type: functional

Structure (SMILES)	IC90 [1]	MIC [3]	further results
CC1OC1c1ccc2ccccc2n1 (stereo unspecified)	25 µg/mL (≈ 135 µM)	–	–
CCCc1ccc2ccccc2n1	20 µg/mL (≈ 117 µM)	–	–
CN1c2ccccc2CCC1CCc1ccc2c(c1)OCO2 (stereo unspecified)	–	–	pIC50 [2]: 6.56
C/C=C/c1ccc2ccccc2n1 [CHIMANINE B]	25 µg/mL (≈ 148 µM)	–	–
COc1ccc(-c2nc3ncccc3c3ccoc23)cc1	–	5.6 µM	–
CC[C@@H](CO)NCCN[C@@H](CC)CO [ETHAMBUTOL]	–	7.6 µM	–
